Entries after “also recorded” stand apart in the source; their conditions may differ.

One assay deals with T1, ERα (Homo sapiens, UniProt P03372).
T1 sequence (P03372 1-595): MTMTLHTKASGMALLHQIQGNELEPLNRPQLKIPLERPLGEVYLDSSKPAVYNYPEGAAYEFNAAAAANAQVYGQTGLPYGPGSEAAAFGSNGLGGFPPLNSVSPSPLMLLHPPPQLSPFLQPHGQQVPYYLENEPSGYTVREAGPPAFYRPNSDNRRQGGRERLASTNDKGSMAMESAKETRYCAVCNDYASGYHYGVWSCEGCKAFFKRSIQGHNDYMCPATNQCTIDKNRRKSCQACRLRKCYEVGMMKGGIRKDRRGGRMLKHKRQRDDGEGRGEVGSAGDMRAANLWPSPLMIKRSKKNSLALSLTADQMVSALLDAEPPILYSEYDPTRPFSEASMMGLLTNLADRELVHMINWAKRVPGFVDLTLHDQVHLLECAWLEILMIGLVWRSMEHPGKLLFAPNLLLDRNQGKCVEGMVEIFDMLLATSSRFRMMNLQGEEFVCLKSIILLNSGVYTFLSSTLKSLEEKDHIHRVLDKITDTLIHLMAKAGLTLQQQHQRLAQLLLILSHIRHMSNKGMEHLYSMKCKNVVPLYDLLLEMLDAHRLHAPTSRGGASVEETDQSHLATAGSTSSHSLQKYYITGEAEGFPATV
Nature of the assay: Relative binding affinity (RBA) to estrogen receptor alpha, radiometric measurement. Particulars: relative value to 100% for E2 by radiometric measurement.

In the next assay the target is ERβ (Homo sapiens, UniProt Q92731). Nature of the assay: Relative binding affinity (RBA) to estrogen receptor beta, radiometric measurement. Particulars: for β/α Ratio: ratio of RBA ERβ to RBA ERα; for RBA ERβ: relative value to 100% for E2 by radiometric measurement.
The next assay deals with primary OPCs/OLs. Nature of the assay: Primary OPC/OL differentiation and survival (O4, MOG, DAPI staining). Particulars: for number of MOG+ OLs: vs vehicle-treated cells, FIG. 12B. The format is cell-based, mouse. The text has this: FIG. 12A is representative images of primary OPCs/OLs from wells containing differentiating media in the presence of different analogues. OLs were immunostained with an antigen on the surface of oligodendrocyte progenitors, O4, a marker of mature oligodendrocytes, myelin oligodendrocyte glycoprotein, MOG and co-stained with nuclear stain DAPI.
FIG. 12B and FIG. 12C show quantification of the effects of treatment on the number of MOG+ OLs and the number of total cells (DAPI), respectively. […] There were 3 wells/treatment group. n=3 independent experiments were performed. One-Way ANOVA with Dunnett's multiple comparisons test.
The effect on cell differentiation and survival of estrogen receptor § (ERP) ligand IndCl and analogs were investigated. Some estrogen receptor § (ERP) ligands increase primary mouse oligodendrocyte differentiation (FIGS. 12A-12C).

Assay [1] concerns primary oligodendrocyte and oligodendrocyte precursor cells (OL/OPCs). Nature of the assay: Primary OPC culture differentiation (MBP immunostaining, DAPI). The format is cell-based, mouse. More on the design: key to %MBP+/DAPI: *: The level of production of myelin basic protein (MBP); ---: reduction of MBP. Particulars: for %MBP+/DAPI: level of production of myelin basic protein in primary OPC/OL cultures; for MBP+/DAPI ratio (OPC differentiation): FIG. 10B. As to the method: Primary OPC Cultures: Primary OPCs, isolated from postnatal day P1 C57BL/6 male and female mouse cortices as described previously, were treated with 10 nM ligands in differentiating medium for 3 days (Tiwari-Woodruff et al., 2001; Tiwari-Woodruff et al., 2006). Primary OPC were cultured into 8-well chamber slides (three wells per condition, 2.5×10^5 cells/well) for three days to attach and […] in differentiating media (consisting of DMEM-F12 with triiodothyronine- and thyroxine-containing Sato as well as penicillin, streptomycin, insulin, N-acetyl-L-cysteine, forskolin, ciliary neurotrophic factor, neurotrophin-3, and platelet-derived growth factor receptor α (Tiwari-Woodruff et al., 2001)). A positive control (IndCl), a negative control (Vehicle consisting of the media+EtOH mixture used to dissolve IndCl), and a normal control (differentiating media alone) were used for comparison. At the end of the treatment period, cells were fixed, stained by immunocytochemistry (primary antibody polyclonal chicken myelin basic protein (MBP, Millipore AB9348), shown in green and co-stained with nuclear stain—DAPI shown in blue), and imaged with an Olympus BX61 confocal microscope (Olympus America Inc., Center Valley, Pa.) at 10× magnification (3 images per well). Cells were counted using the ImageJ multipoint tool, and counts were then divided by the image area (mm^2). Average cell density for each condition was then divided by the normal condition cell density. Analysis of OL differentiation consisted of counting the number of MBP+ cells and process extensions that were longer than the respective cell-body diameter and tracking the number of highly branched MBP+ cells (with three or more processes) (Monnerie et al., 2017). Statistics were performed using GraphPad Prism 6 Software (La Jolla, Calif.). One-way ANOVA with Tukey's posthoc test for multiple comparisons was used to generate p-values, and data are presented as mean SEM (with α≤0.05).
Primary OPC cultures were used as a convenient cell-based assay to characterize the proliferation and/or differentiation effects of the new IndCl analogues and to select those most suitable for more extensive studies to be done in comparison with the parental ligand, IndCl. 48 hours after plating OPCs, one of seven IndCl analogues (FIG. 1A) was added to differentiating media at a concentration of 10 nM (De Angelis et al., 2005; Saijo et al., 2011). OPCs were allowed to differentiate for 3 days in the presence of IndCl or analogues, at which point they were fixed, immunostained for OPC/OL markers, and quantified. […] The total number of cells in culture was not altered by any treatment (FIGS. 1B and 1D).

Sequence of ERβ (Q92731 whole entry, species assumed): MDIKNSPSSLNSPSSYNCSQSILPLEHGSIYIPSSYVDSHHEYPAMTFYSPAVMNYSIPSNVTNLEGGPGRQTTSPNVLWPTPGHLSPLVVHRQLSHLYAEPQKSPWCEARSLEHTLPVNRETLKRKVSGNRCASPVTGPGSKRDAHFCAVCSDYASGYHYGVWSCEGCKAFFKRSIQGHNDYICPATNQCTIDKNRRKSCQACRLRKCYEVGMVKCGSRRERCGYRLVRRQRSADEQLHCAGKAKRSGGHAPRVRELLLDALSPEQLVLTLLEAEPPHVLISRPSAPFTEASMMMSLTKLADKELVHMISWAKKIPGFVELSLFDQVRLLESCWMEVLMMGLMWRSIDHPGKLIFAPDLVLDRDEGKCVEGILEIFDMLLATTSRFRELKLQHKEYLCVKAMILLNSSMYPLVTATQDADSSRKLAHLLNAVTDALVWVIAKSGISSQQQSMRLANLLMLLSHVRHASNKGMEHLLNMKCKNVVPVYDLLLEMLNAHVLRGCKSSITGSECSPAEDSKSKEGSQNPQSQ

Take `Cc1cc(O)ccc1-n1nc2ccc(O)cc2c1Br` [IndBr-o-Me, 3-bromo-2-(4-hydroxy-2-methylphenyl)-2H-indazol-5-ol]: the “RBA ERα” value on ERα is given as 1.22%. Moreover, at ERβ, the “β/α Ratio” value is on record as 9.8 and the “RBA ERβ” value stood at 11.99%. Besides, in the assay with primary OPCs/OLs, the “number of MOG+ OLs” value is listed as “significant increase”.
As for `Oc1ccc(-n2nc3ccc(O)c(Cl)c3c2Cl)c(Cl)c1` [IndCl-o-Cl-4-Cl, 2-(2-chloro-4-hydroxyphenyl)-3,4-dichloro-2H-indazol-5-ol], on ERα, the “RBA ERα” value was found to be 0.33%. At ERβ, the “β/α Ratio” value was found to be 0.46 and the “RBA ERβ” value came out at 0.73%. Moreover, the “%MBP+/DAPI” value in assay [1] is “*”.
Regarding `Oc1cc(F)c(-n2nc3ccc(O)c(Cl)c3c2Cl)c(F)c1` [IndCl-o-F2-4-Cl, 3,4-dichloro-2-(2,6-difluoro-4-hydroxyphenyl)-2H-indazol-5-ol], the “RBA ERα” value at ERα turned out to be 0.076%. On ERβ, the “β/α Ratio” value was 3.6 and the “RBA ERβ” value is on record as 0.28%. Moreover, the “MBP+/DAPI ratio (OPC differentiation)” value in assay [1] is reported as “greatest increase”.
Take `Oc1ccc(-n2nc3ccc(O)cc3c2Cl)c(I)c1` [IndCl-o-I, 2-(2-iodo-4-hydroxyphenyl)-3-chloro-2H-indazol-5-ol]: on ERα, the “RBA ERα” value was determined as 0.34%. Also, at ERβ, the “β/α Ratio” value was 15.7 and the “RBA ERβ” value turned out to be 5.38%. In addition, the “number of MBP+ OLs (differentiated OLs)” value in assay [1] (10 nM, 3 days in differentiating media, vs vehicle-treated cells) was “significant increase; also recorded: significantly increased”. For the same compound, the “branched OLs / complex branching cells” value in assay [1] (10 nM, vs vehicle-treated cells) was “increase in the percentage of branched OLs”.
Regarding `Oc1ccc(-n2nc3ccc(O)cc3c2Cl)c(O)c1` [IndCl-o-OH, 4-(3-chloro-5-hydroxy-2H-indazol-2-yl)benzene-1,3-diol], the “RBA ERα” value at ERα amounted to 0.062%. Besides, at ERβ, the “β/α Ratio” value is given as 48.2 and the “RBA ERβ” value is on record as 2.99%. In addition, the “MBP+/DAPI ratio (OPC differentiation)” value in assay [1] is reported as “greatest increase”.
With `Oc1ccc(-n2nc3ccc(O)cc3c2F)c(Br)c1` [IndF-o-Br, 2-(2-bromo-4-hydroxyphenyl)-3-fluoro-2H-indazol-5-ol], the “RBA ERα” value at ERα came out at 0.37%. Moreover, at ERβ, the “β/α Ratio” value was found to be 3.3 and the “RBA ERβ” value came out at 1.22%. The “number of total cells (DAPI)” value in the assay with primary OPCs/OLs (FIG. 12C) is reported as “significant increase”. In addition, in the assay on primary OPCs/OLs, the “number of MOG+ OLs” value is “significant increase”.
In the case of `Cc1cc(O)ccc1-n1nc2ccc(O)cc2c1F` [IndF-o-Me, 3-fluoro-2-(4-hydroxy-2-methylphenyl)-2H-indazol-5-ol], the “RBA ERα” value at ERα came to 0.11%. Moreover, at ERβ, the “β/α Ratio” value was 3.4 and the “RBA ERβ” value came out at 0.37%. In addition, the “%MBP+/DAPI” value in assay [1] is “* * * * *”. Moreover, the “number of MOG+ OLs” value in the assay with primary OPCs/OLs was “significant increase”.

For the origin of these results see patent US11673866B2, “Estrogen receptor beta ligands for the prevention and treatment of multiple sclerosis (MS) and other demyelinating, inflammatory and neurodegenerative diseases” (The Board of Trustees of the University of Illinois, priority 2018, dated 2023).
